# Measurements as given in US11229664B2, “Treatment of myelosuppression” (priority 2012, dated 2022).
# Where “and” joins values, the source holds several entries; their conditions need not be identical. Identical values can stand only once. Like-named read-outs stand apart in the source and are kept apart here.
# Legend:
# [1] = A2780 xenograft study: body weight; type: in vivo, athymic female mice; conditions: Group 3: 80 mg/kg IP QD 1, 8, 15, individual mice, 80 mg/kg
# Procedure: (§1) ODSH (50 mg/mL stock concentration) was made by Pyramid Laboratories, Inc. and stored at room temperature until use. As described further below, ODSH was administered either intravenously (IV), at a dose of 48 mg/kg and volume of 10 mL/kg, or subcutaneously (SC) at a dose of 24 mg/kg and volume of 5 ml/kg. Carboplatin obtained from a clinical supplier was stored at 4° C. until use. Carboplatin was administered by intraperitoneal injection (IP) at a dose of 80 mg/kg and volume of 10 mL/kg. Saline solution (0.9% NaCl) was used as a vehicle control for ODSH and administered by the same routes and in the same volumes as ODSH.
# (§2) Human ovarian cancer cell line A2780 was used in the murine xenograft experiments as follows. Approximately 5×10^6 A2780 cells were used per mouse, injected subcutaneously into the right flank in 0.1 mL of 50% Matrigel/50% media. The study was initiated when tumors reached a size of 90-130 mg. 40 mice were used, 10 per treatment regimen. The mice were normal athymic female mice, aged 6-7 weeks, housed in microisolator cages and maintained under pathogen-free conditions. Tumor and body weights were measured three times per week.
# (§3) Four treatment groups were studied.
# [2] = test system: Human ovarian cancer cell line A2780; test: A2780 human ovarian cancer xenograft model: tumor weight; type: in vivo, athymic female mice; design: key to Mouse status printed in place of tumor weight: FD = Found Dead; TS = Terminal Sacrifice; conditions: for Mouse status printed in place of tumor weight: Groups 2 and 3
# Procedure: as §1, §2, §3
# [3] = for Deaths: N = 10 per group
# Procedure: All experiments were conducted on female athymic nude mice (Hsd:Athymic Nude-Foxn1nu) supplied by Harlan (Indianapolis, Ind.). Mice were received at four weeks of age, 12-15 grams in weight, and were acclimated for seven days prior to handling. The mice were housed in microisolator cages (Lab Products, Seaford, Del.) and maintained under specific pathogen-free conditions. All procedures were carried out under appropriate institutional guidelines for animal care.
# Seven days following inoculation, tumors were measured using calipers and tumor weight was calculated using the animal study management software. […] Body weights were recorded when the mice were randomized and were taken twice weekly thereafter in conjunction with tumor measurements, on each of Days 1, 4, 8, 11, 15, 18, 22, 26, 30, 33, and 36.
# The study was terminated when the vehicle control reached an endpoint of 1500 mg, on Day 36.
# [4] = test system: BxPC-3 pancreas tumor cell line; test: BxPC-3 human pancreas tumor xenograft model: tumor weight, tumor growth inhibition (TGI); type: in vivo, female athymic nude mice
# Procedure: Compounds tested in the experiment were as follows. ODSH was made by Pyramid Laboratories, Inc. (Costa Mesa, Calif.). ODSH was provided at a stock concentration of 50 mg/ml and stored at room temperature until use. ODSH was diluted in a 0.9% NaCl solution (B. Braun Medical Inc., Irvine, Calif.) to a concentration of 2.4 mg/ml to deliver 24 mg/kg, in a 10 ml/kg dose volume when administered intravenously. A concentration of 4.8 mg/ml was formulated to deliver a 24 mg/kg dose at a 5 ml/kg dose volume when administered subcutaneously. ODSH was formulated fresh prior to each dose.
# Nab-paclitaxel was manufactured by Abraxis BioScience LLC (Bridgewater, N.J.) and diluted in a 0.9% NaCl solution to a concentration of 1.5 mg/ml to deliver 15 mg/kg, in a 10 ml/kg dose volume. All standard agent preparations were made fresh prior to their administration.
# BxPC-3 cells were obtained and prepared as follows. The BxPC-3 pancreas tumor cell line was received from American Type Culture Collection (ATCC, Manassas, Va.). Cultures were maintained in RPMI 1640 medium (Hyclone, Logan, Utah) supplemented with 5% fetal bovine serum. The cells were housed in a 5% CO2 atmosphere. The cultures were expanded in tissue culture flasks at a 1:3 split ratio until a sufficient amount of cells were harvested.
# BxPC-3 Human Pancreas Tumor Xenograft Model: Female athymic nude mice per treatment condition were inoculated subcutaneously in the right flank with 0.1 ml of a 50% RPMI 1640/50% Matrigel™ (BD Biosciences, Bedford, Mass.) mixture containing a suspension of BxPC-3 tumor cells (approximately 5×10^6 cells/mouse).
# Study Director V.1.7.54k (Study Log).
# Mean tumor growth inhibition (TGI) was calculated utilizing Formula A below (deaths were not included in the TGI calculations).
# All statistical analyses in the xenograft study were performed with GraphPad Prism® v4 software.
# [5] = Total deaths on or before Day 26
smiles,measurement,setting,value
"N.N.O=C([O-])C1(C(=O)[O-])CCC1.[Pt+2] [Carboplatin, reference compound]","Individual weights, Day 1 Weight",[1]; Day 1 (baseline),23.2 g and 20.6 g and 22.6 g and 21.7 g and 20.7 g and 22.4 g and 19.7 g and 20.3 g and 21.6 g and 22.2 g
same,Day 4 Weight change,[1]; Day 4,−2.6% and −5.3% and −4.4% and −3.2% and 1.9% and −0.4% and −5.6% and −5.9% and −2.3% and −1.8%
same,"Individual weights, Day 4 Weight",[1]; Day 4,22.6 g and 19.5 g and 21.6 g and 21.0 g and 21.1 g (2×) and 22.3 g and 18.6 g and 19.1 g and 21.8 g
same,Day 6 Weight change,[1]; Day 6,−3.0% (2×) and −4.9% and 1.3% and −1.4% and 3.91% and −0.4% and −4.4% and −3.7% and −3.2%
same,"Individual weights, Day 6 Weight",[1]; Day 6,22.5 g and 19.6 g and 22.9 g and 21.4 g and 21.5 g (2×) and 22.3 g and 19.1 g and 19.4 g and 20.8 g
same,Day 8 Weight change,[1]; Day 8,2.2% (2×) and 0.5% (2×) and 6.2% and 1.4% and 5.3% and 1.5% and −1.0% and −1.4%
same,"Individual weights, Day 8 Weight",[1]; Day 8,23.7 g and 20.7 g and 24.0 g and 22.0 g and 23.8 g and 22.9 g and 20.0 g and 20.1 g and 21.3 g and 22.3 g
same,Day 11 Weight change,[1]; Day 11,−7.3% and −4.9% and 0.9% and −5.5% and 2.4% and −3.6% and −5.1% and −6.4% and −11.1% and −7.7%
same,"Individual weights, Day 11 Weight",[1]; Day 11,21.5 g and 19.6 g and 22.8 g and 20.5 g (2×) and 21.2 g and 21.6 g and 18.7 g and 19.0 g and 19.2 g
same,Day 14 Weight change,[1]; Day 14,−2.2% and 1.0% and 2.7% and −0.5% and 9.7% and 3.1% and −1.5% and −3.0% and −10.6% and −9.5%
same,"Individual weights, Day 14 Weight",[1]; Day 14,22.7 g (2×) and 20.0 g and 23.2 g and 21.6 g and 23.1 g and 19.4 g and 19.7 g and 19.3 g and 20.1 g
same,Day 18 Weight change,[1]; Day 18,−4.3% and −1.9% and −5.8% and −10.6% and 6.3% and 4.0% and −8.6% and −7.9% and −17.1% and −9.0%
same,"Individual weights, Day 18 Weight",[1]; Day 18,22.2 g and 20.2 g (2×) and 21.3 g and 19.4 g and 22.0 g and 23.3 g and 18.0 g and 18.7 g and 17.9 g
same,Day 21 Weight change,[1]; Day 21,−0.4% and 3.9% and −4.9% and −8.3% and 13.5% and 7.1% and −8.6% (2×) and −5.4% and −15.7%
same,"Individual weights, Day 21 Weight",[1]; Day 21,23.1 g and 21.4 g and 21.5 g and 19.9 g and 23.5 g and 24.0 g and 18.0 g and 19.2 g and 18.2 g and 20.3 g
same,Day 25 Weight change,[1]; Day 25,8.3% and −3.5% and −6.9% and −2.0% and −8.1%
same,"Individual weights, Day 25 Weight",[1]; Day 25,22.3 g and 21.8 g and 20.2 g and 19.9 g and 20.4 g
same,Day 28 Weight change,[1]; Day 28,11.7% and −1.8% and −2.8% and 3.0% and −8.6%
same,"Individual weights, Day 28 Weight",[1]; Day 28,23.0 g and 22.2 g and 21.1 g and 20.9 g and 20.3 g
same,"Tumor weight, Mean",[2]; Day 1,107.3 mg
same,"Tumor weight, Median",[2]; Day 1,105.6 mg
same,"Tumor weight, individual mice","[2]; Day 1, Mouse 1-10",104 mg and 105 mg and 106 mg and 110 mg and 113 mg and 116 mg and 127 mg and 94 mg and 96 mg and 102 mg
same,"Tumor weight, Mean",[2]; Day 4,148.2 mg
same,"Tumor weight, Median",[2]; Day 4,144.5 mg
same,"Tumor weight, individual mice","[2]; Day 4, Mouse 1-10",108 mg (2×) and 175 mg and 199 mg and 142 mg and 163 mg and 147 mg and 194 mg and 137 mg and 109 mg
same,"Tumor weight, Mean",[2]; Day 6,213.0 mg
same,"Tumor weight, Median",[2]; Day 6,215.6 mg
same,"Tumor weight, individual mice","[2]; Day 6, Mouse 1-10",114 mg and 264 mg and 239 mg and 223 mg and 300 mg and 208 mg and 256 mg and 200 mg and 157 mg and 169 mg
same,"Tumor weight, Mean",[2]; Day 8,356.5 mg
same,"Tumor weight, Median",[2]; Day 8,364.2 mg
same,"Tumor weight, individual mice","[2]; Day 8, Mouse 1-10",148 mg and 466 mg and 358 mg and 371 mg and 605 mg and 306 mg and 386 mg and 419 mg and 245 mg and 262 mg
same,"Tumor weight, Mean",[2]; Day 11,483.1 mg
same,"Tumor weight, Median",[2]; Day 11,508.5 mg
same,"Tumor weight, individual mice","[2]; Day 11, Mouse 1-10",103 mg and 539 mg and 499 mg and 419 mg and 813 mg and 555 mg and 542 mg and 517 mg and 442 mg and 402 mg
same,"Tumor weight, Mean",[2]; Day 14,719.3 mg
same,"Tumor weight, Median",[2]; Day 14,750.3 mg
same,"Tumor weight, individual mice","[2]; Day 14, Mouse 1-10","96 mg and 875 mg and 799 mg and 628 mg and 1,093 mg and 795 mg and 975 mg and 587 mg and 706 mg and 640 mg"
same,"Tumor weight, Mean",[2]; Day 18,984.1 mg
same,"Tumor weight, Median",[2]; Day 18,"1,051.0 mg"
same,"Tumor weight, individual mice","[2]; Day 18, Mouse 1-10","84 mg and 1,349 mg and 1,218 mg and 713 mg and 1,806 mg and 1,160 mg and 1,168 mg and 942 mg and 730 mg and 671 mg"
same,"Tumor weight, Mean",[2]; Day 21,"1,327.3 mg"
same,"Tumor weight, Median",[2]; Day 21,"1,328.6 mg"
same,"Tumor weight, individual mice","[2]; Day 21, Mouse 1-10","112 mg and 1,790 mg and 1,596 mg and 834 mg and 2,675 mg and 1,626 mg and 1,439 mg and 1,218 mg and 941 mg and 1,040 mg"
same,"Tumor weight, Mean",[2]; Day 25,"1,761.3 mg"
same,"Tumor weight, Median",[2]; Day 25,"1,921.0 mg"
same,"Tumor weight, individual mice","[2]; Day 25, Mouse 1-10","2,403 mg and 2,127 mg and 1,109 mg and 1,921 mg and 1,246 mg"
same,Mouse status printed in place of tumor weight,"[2]; Day 25, individual mice",TS
same,"Tumor weight, Mean",[2]; Day 28,"2,243.0 mg"
same,"Tumor weight, Median",[2]; Day 28,"2,461.0 mg"
same,"Tumor weight, individual mice","[2]; Day 28, Mouse 1-10","2,877 mg and 2,599 mg and 1,539 mg and 2,461 mg and 1,739 mg"
same,Mouse status printed in place of tumor weight,"[2]; Day 28, individual mice",TS
Nc1ccn([C@@H]2O[C@H](CO)[C@@H](O)C2(F)F)c(=O)n1 [Gemcitabine],Deaths,[3]; [5],0
same,Deaths,[3]; Total deaths on or before Day 36,0
same,Day by which the mice recovered their weight,"[3]; mouse, in vivo",≤ 18 days
same,Day on which maximum weight loss was reached,"[3]; mouse, in vivo",11 days
same,Maximum weight loss,"[3]; mouse, in vivo",8.7%
same,Starting Weight,"[3]; mouse, in vivo",22.48 g
"O=C1[O][Pt]2([NH][C@@H]3CCCC[C@H]3[NH]2)[O]C1=O [Oxaliplatin, reference compound]",Average Weight,[3]; Day 1,20.82 g
same,% Weight Loss or Gain,[3]; Day 4,−2.02%
same,% Weight Loss or Gain,[3]; Day 8,−0.82%
same,Average Weight,[3]; Day 11,20.12 g
same,% Weight Loss or Gain,[3]; Day 15,−0.05%
same,Average Weight,[3]; Day 15,20.81 g
same,% Weight Loss or Gain,[3]; Day 18,−1.78%
same,Deaths,[3]; [5],0
same,Starting Weight,"[3]; group mean body weight at start, dose, schedule and route per group as in table",20.82 g
same,Mice with bruising on the tails or abdomen (site of injection),"[3]; ten mice per group, BxPC-3 xenograft study",One mouse
same,"Difference in tumor weight compared to vehicle control, Day 26","[4]; ANOVA with Tukey's Multiple Comparison Test, BxPC-3 xenograft",No significant difference
same,"Tumor weight, Mean","[4]; Day 26, Group 3: oxaliplatin 10 mg/kg IV wkly x4 (alone to Day 26), from Day 26 gemcitabine 80 mg/kg IP + nab-paclitaxel 15 mg/kg IV",635.0 mg
same,"TGI (mean tumor growth inhibition), Day 26","[4]; Day 26 vs Day 1, compared to vehicle control, BxPC-3 xenograft, ODSH 24 mg/kg BID, oxaliplatin 10 mg/kg, gemcitabine 80 mg/kg (Table 1)",8.0%
same,Day 26 Tumor Weight,"[4]; Table 14, treatment administered until Day 26",635.0 ± 52.3 mg
